Results published in US20260053778A1, “USE OF NOVEL PPAR ACTIVITY MODULATOR FOR PREVENTION, AMELIORATION OR TREATMENT OF DEGENERATIVE BRAIN DISEASES” (POSTECH RESEARCH AND BUSINESS DEVELOPMENT FOUNDATION, priority 2022, published 2026).

Experiments:
PPARα = biological target: T1, PPARα (Homo sapiens, UniProt Q07869); assay: GAL4-transactivation assay in HEK293A cells, PPARα; type: cell-based; conditions: GAL4 reporter, 24 h, compared with WY14643
T1 construct: expressed in transfected cells; host or cells: HEK293A
T1 sequence (Q07869 1-468): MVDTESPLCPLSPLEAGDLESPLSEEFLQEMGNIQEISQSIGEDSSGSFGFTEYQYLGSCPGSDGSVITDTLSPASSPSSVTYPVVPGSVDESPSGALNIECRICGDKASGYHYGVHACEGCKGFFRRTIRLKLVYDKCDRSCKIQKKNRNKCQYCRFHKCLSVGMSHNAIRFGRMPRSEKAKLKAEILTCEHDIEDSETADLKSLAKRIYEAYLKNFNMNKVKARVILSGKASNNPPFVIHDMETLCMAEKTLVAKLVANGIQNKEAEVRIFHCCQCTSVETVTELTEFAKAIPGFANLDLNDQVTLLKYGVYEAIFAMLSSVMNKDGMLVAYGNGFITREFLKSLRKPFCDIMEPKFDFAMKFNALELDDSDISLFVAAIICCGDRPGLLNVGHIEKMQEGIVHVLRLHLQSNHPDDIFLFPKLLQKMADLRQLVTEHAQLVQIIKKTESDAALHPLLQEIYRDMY
Experimental: A GAL4-transactivation assay experiment was performed to determine whether the drug was bound to the PPAR ligand binding site. HEK293A cells were transfected with GAL4-reporter plasmid and pGL4.74 (Promega, Madison, WI, USA) as an internal standard via electroporation using the Neon Transfection System (Invitrogen, Carlsbad, CA, USA). All vectors were kindly provided by Professor Kanno Yuichiro, Toho University, Japan. After overnight culture, cells were treated with DTMB and each positive control compound for 24 h. Cells were then harvested, resuspended in luciferase lysis buffer (Promega), and incubated on ice for 10 min. Cell debris was removed by centrifugation at 20,000×g, 4° C. for 10 min, and the supernatant was used for the luciferase assay. Luciferase activity was measured using the Dual Luciferase Reporter Assay System (Promega) according to the manufacturer's instructions. In the measurement experiment, firefly luciferase activity was normalized to Renilla luciferase activity. To investigate the concentration-dependent effect of DTMB drug, EC50 values were measured by treating various concentrations of DTMB.

[1] = biological target: T2, HIS-tagged recombinant PPAR γ protein (Homo sapiens, UniProt P37231); assay: CNBr-drug and protein binding experiment, PPARγ; conditions: Western blotting after 24 h incubation
T2 sequence (P37231 238-503 limits assumed): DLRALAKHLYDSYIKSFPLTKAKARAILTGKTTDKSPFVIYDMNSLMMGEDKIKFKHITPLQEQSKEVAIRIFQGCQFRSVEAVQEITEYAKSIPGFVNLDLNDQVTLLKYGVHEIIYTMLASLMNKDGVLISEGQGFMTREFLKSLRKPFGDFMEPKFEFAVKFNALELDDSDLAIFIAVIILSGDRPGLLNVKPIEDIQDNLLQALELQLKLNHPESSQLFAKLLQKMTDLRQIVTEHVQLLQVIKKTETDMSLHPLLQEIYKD
Experimental: Since the computer prediction program predicted that DTMB binds to PPAR transcription factors, CNBr-drug and protein binding experiments were conducted to confirm whether DTMB actually binds to PPAR. To determine the actual degree of drug-protein binding, the reaction of the protein of the PPAR-α, β/δ, γ ligand-binding portion with the DTMB drug-bound CNBr beads was confirmed through Western blotting.
Specifically, CNBr Sepharose 4B beads were prepared and activated according to the instructions. 100 mg of CNBr-activated Sepharose 4B beads were incubated with drugs or DMSO at 4° C. for 18 h. The drug-bound beads reacted with HIS-tagged recombinant PPAR α, β/δ, and γ proteins. After 24 h of incubation, Western blotting experiments were performed to confirm whether the recombinant proteins bound to the drug-bound beads.

[2] = tested on: 5×FAD Alzheimer's dementia-induced mice; assay: Y maze test in 5×FAD mice; type: in vivo, mouse; conditions: DTMB 10 mg/kg orally, 12 weeks
Experimental: 5×FAD (Tg6799) mice were purchased from Jackson Laboratory (Bar Harbor, ME, USA), and male transgenic mice were mated with B6/SJL hybrid female mice. Genotyping was performed by PCR analysis of tail-cut samples. In this example, 8-week-old female mice were used for drug administration, and wild-type littermates were used as controls. All procedures related to animal behavior experiments were approved by the Institutional Animal Care and Use Committee of Pohang University of Science and Technology (POSTECH IACUC). All animal experiments were performed in accordance with the principles of the Animal Welfare Act, the PHS Animal Welfare Policy, and the NIH Guide for the Care and Use of Laboratory Animals. All mice were maintained under general conditions in the POSTECH animal facility according to institutional guidelines.
To evaluate the effect of DTMB on 5×FAD mice, DTMB (10 mg/kg) and vehicle (1% carboxymethylcellulose and 10% DMSO) were orally administered to four groups (wild type, wild type+DTMB, 5×FAD, and 5×FAD+DTMB) 6 days per week for 3 months.
The measuring device consists of three branches, each of which is 42 cm long, 3 cm wide, and 12 cm high, and the angle at which the three branches folded is 120°. […] Alternation behavior is defined as entering all three branches without overlapping and was calculated using the following mathematical formula.

[3] = tested on: 5×FAD Alzheimer's dementia-induced mice; assay: Immunohistochemistry of Aβ aggregates in brain tissue; type: in vivo, mouse; conditions: hippocampus and cerebral cortex regions, 6e10 immunohistochemistry, 5×FAD mice, DTMB 10 mg/kg orally
Experimental: In the case of Alzheimer's dementia, an increase in the formation of Aβ aggregates in brain tissue is observed as a common pathological phenomenon. Therefore, to determine whether DTMB administration inhibited the formation of Aβ aggregates, the amount of AB aggregates in the hippocampus and cerebral cortex, which are closely related to memory ability, was measured using immunochemical staining in 5×FAD Alzheimer's dementia-induced mice.
The mice were perfused with ice-cold phosphate-buffered saline (PBS). The brain tissue was used separately for molecular analysis or immunohistochemistry. The right hemisphere was fixed with 4% PFA and transferred to a sucrose solution (30%) for 24 hours. The right hemisphere was frozen in the optimal cutting temperature compound of dry ice. Coronal sections (18 μm thick) including the hippocampus were cut and prepared on slide glass. The tissue sections were then permeabilized and blocked with blocking solution (5% goat serum and 0.2% Triton X-100 in PBS) for 1 h at room temperature. Primary antibody incubation was performed overnight at 4° C. using anti-6e10 antibody (Biolegend, Japan, 1:100). After washing, the sections were incubated with the appropriate secondary antibody (1:500) for 1 h at room temperature. […] Fluorescence was measured by calculating the % area and analyzed using ImageJ. […]

Binding of PPARγ ligand-binding protein to drug-bound CNBr beads [1]: binds to all subtypes of PPAR
Compound: COc1ccc(-c2cc(=O)oc3c(C)c(OC(=O)[C@H](Cc4c[nH]c5ccccc45)NC(=O)OC(C)(C)C)ccc23)cc1 [DTMB, [4-(4-Methoxyphenyl)-8-methyl-2-oxochromen-7-yl](2S)-3-(1H-indol-3-yl)-2-[(2-methylpropan-2-yl)oxycarbonylamino]propanoate]
PPARα activation versus positive control (PPARα): activated at a lower concentration than WY14643
Alternation behavior (Y maze) [2]: increased statistically significantly
Amount of Aβ aggregates [3]: significantly reduced
